Laboratory results from patent US20230012570A1, “BICYCLIC COMPOUND USED AS SELECTIVE ANDROGEN RECEPTOR MODULATOR” (MEDSHINE DISCOVERY INC., priority 2019, published 2023).

What was measured:
[1] = system: muscle growth model of female rats; assay: In vivo pharmacodynamic study for muscle growth in female rats; conditions: female SD rats, 10 mg/kg oral, QD × 37 days
Description: Experimental Embodiment 3: In Vivo Pharmacodynamic Study of the Compounds of the Present Disclosure for Muscle Growth in Female Rats
From 16 female SD rats, 12 were selected and randomly divided into 2 groups of 6 animals each according to their body weight, with 2 spare animals in each group; the vehicle was (5% Tween 80+90% polyethylene glycol 400+5% polyvinylpyrrolidone K30): 1% carboxymethyl cellulose=1:9 (v/v).
The rats were acclimatized in the ecological feeding box for 1 week at approximately 2 months of age, and after the acclimatization period, the rats were divided equally into 2 groups (n=6) according to body weight, and the vehicle and compound 3A were administered by gavage, once a day, for 5 weeks, at which time the animals were euthanized, and the tissues (muscle tissue: levator anal muscle, vaginal smooth muscle and gastrocnemius; gonad-related tissue: clitoris) were collected by necropsy and weighed.

CYP1A2 = molecular target: T1, CYP1A2 (Homo sapiens, UniProt P05177); assay: Human liver microsomal CYP inhibition experiment, CYP1A2; format: in vitro ADME
T1 construct: Mixed human liver microsomes (HLM) were purchased from Corning Inc; tissue Corning Inc. or XenoTech, LLC. or other suppliers; host or cells: pooled human liver microsomes
T1 sequence (P05177 1-516): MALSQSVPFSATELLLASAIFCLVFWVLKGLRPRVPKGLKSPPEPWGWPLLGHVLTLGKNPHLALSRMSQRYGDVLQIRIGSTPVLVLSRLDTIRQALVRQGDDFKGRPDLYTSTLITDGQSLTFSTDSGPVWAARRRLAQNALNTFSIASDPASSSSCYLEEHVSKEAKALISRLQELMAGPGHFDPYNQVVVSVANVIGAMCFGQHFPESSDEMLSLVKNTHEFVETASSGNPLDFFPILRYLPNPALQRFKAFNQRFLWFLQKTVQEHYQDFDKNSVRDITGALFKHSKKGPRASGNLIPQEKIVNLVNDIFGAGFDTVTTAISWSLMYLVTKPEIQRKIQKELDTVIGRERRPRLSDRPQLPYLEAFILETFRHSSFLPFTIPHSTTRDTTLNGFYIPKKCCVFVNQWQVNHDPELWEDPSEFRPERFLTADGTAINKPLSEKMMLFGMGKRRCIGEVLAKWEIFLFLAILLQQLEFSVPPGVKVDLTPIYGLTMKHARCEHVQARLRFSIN
Experimental: (§1) Experiment Embodiment 4: Human Liver Microsomal CYP Inhibition Experiment
(§2) The inhibitory effects of the test compound 3A and VK5211 on the activities of human liver microsomal cytochrome P450 isozymes (CYP1A2, CYP2C9, CYP2C19, CYP2D6 and CYP3A4) were determined.
(§3) Mixed human liver microsomes (HLM) were purchased from Corning Inc. (Steuben, New York, USA) or XenoTech, LLC. (Lenexa, Kans., USA) or other suppliers, and were stored at a temperature below −60° C. before use.
(§4) First, the test compound (10.0 mM) was gradient diluted to prepare working solution (100×final concentration), and the concentrations of the working solution were: 5.00, 1.50, 0.500, 0.150, 0.0500, 0.0150, 0.00500 mM, and a working solution of each positive inhibitor of P450 isozymes (CYP1A2, CYP2C9, CYP2C19, CYP2D6, and CYP3A4) and a specific substrate mixture thereof (5 in 1) were prepared at the same time; human liver microsomes stored in a refrigerator at a temperature lower than −60° C. were put on ice to thaw, and when all the human liver microsomes were dissolved, the microsomes were diluted with potassium phosphate buffer (PB) to prepare a working solution of a certain concentration (0.253 mg/mL). […] The concentration of metabolites produced by the probe substrate in the sample was determined by liquid chromatography-tandem mass spectrometry (LC-MS/MS) method. […]

CYP2D6 = molecular target: T2, CYP2D6 (Homo sapiens, UniProt P10635); assay: Human liver microsomal CYP inhibition experiment, CYP2D6; format: in vitro ADME
T2 construct: Mixed human liver microsomes (HLM) were purchased from Corning Inc; tissue Corning Inc. or XenoTech, LLC. or other suppliers; host or cells: pooled human liver microsomes
T2 sequence (P10635 whole entry): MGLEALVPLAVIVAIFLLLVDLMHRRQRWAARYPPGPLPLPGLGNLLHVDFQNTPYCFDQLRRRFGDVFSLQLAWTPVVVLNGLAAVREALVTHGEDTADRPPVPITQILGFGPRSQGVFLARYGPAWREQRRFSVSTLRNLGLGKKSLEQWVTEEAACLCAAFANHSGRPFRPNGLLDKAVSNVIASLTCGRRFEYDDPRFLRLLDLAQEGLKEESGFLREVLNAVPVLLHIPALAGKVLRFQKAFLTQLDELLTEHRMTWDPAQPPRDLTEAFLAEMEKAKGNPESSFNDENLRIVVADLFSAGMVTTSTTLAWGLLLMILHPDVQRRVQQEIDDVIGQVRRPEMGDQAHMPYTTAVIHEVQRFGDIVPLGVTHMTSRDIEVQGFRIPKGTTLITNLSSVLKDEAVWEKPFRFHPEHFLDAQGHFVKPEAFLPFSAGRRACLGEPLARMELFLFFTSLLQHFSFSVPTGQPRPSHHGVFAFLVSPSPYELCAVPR
Experimental: as §1, §2, §3, §4

## N#Cc1ccc(N2CC3CC3C2C(O)C(F)(F)F)cc1Cl (single isomer, unassigned) [Compound 3A]
[1]
  abnormalities / tolerability of the animals: no significant abnormalities
  increase of animal body weight compared with the vehicle group: 20%
  increase of animal muscle weight compared with the vehicle group: 34%
  increase of clitoral weight compared with the vehicle group (gonad-related tissue): 19%
CYP1A2
  IC50: 29.3 µM
CYP2D6
  IC50: > 50 µM
